Assay results from ChEMBL document CHEMBL1201862, “PubChem BioAssay data set” (2004).
Activity calls are given as the source filed them. Unless noted, the calls are words filed in the database; no cut-off is given here.

Legend:
Mu-type opioid receptor [1] = biological target: T1, Mu-type opioid receptor (Homo sapiens, UniProt P35372); test: SAR Analysis of Agonists of the MOR Receptor using an Image-Based Assay - Set 2. [Related pubchem assays (depositor defined):AID1777, AID1785, AID1786, AID1966, AID2133, AID2136, AID2284, AID2285, AID2352]; assay type: functional
[2] = biological target: T2, Kappa-type opioid receptor (Homo sapiens, UniProt P41145); test: SAR analysis of Agonists of the Kappa Opioid Receptor (KOR) using an Image-Based Assay - Set 2. [Related pubchem assays (depositor defined):AID1777, AID1786, AID1966, AID2133, AID2136, AID2284, AID2285, AID2359]; assay type: functional
[3] = biological target: T3, Delta-type opioid receptor (Homo sapiens, UniProt P41143); test: SAR Analysis of Agonists of the DOR Receptor using an Image-Based Assay - Set 2. [Related pubchem assays (depositor defined):AID1777, AID1785, AID1786, AID1966, AID2133, AID2136, AID2284, AID2285, AID2370]; assay type: functional
[4] = biological target: T2, Kappa-type opioid receptor; test: SAR analysis of small molecule agonists of the kappa opioid receptor via a luminescent beta-arrestin assay - Set 2. [Related pubchem assays (depositor defined):AID1777, AID1785, AID1786, AID1966, AID2133, AID2136, AID2284, AID449737]; assay type: functional
[5] = biological target: T3, Delta-type opioid receptor; test: SAR Analysis of Antagonists of the DOR Receptor using an Image-Based Assay - Set 2. [Related pubchem assays (depositor defined):AID1777, AID1785, AID1786, AID1966, AID2133, AID2136, AID2284, AID2285, AID2357]; assay type: functional
Mu-type opioid receptor [6] = biological target: T1, Mu-type opioid receptor; test: SAR Analysis of Antagonists of the MOR Receptor using an Image-Based Assay - Set 2. [Related pubchem assays (depositor defined):AID1777, AID1785, AID1786, AID1966, AID2133, AID2136, AID2284, AID2285, AID2420]; assay type: functional
[7] = biological target: T2, Kappa-type opioid receptor; test: SAR analysis of Antagonists of the Kappa Opioid Receptor (KOR) using an Image-Based Assay - Set 2. [Related pubchem assays (depositor defined):AID1777, AID1785, AID1786, AID1966, AID2133, AID2136, AID2284, AID2285, AID2348]; assay type: functional
Troponin, cardiac muscle = Troponin, cardiac muscle (Homo sapiens, UniProt P19429+P45379+P63316); test: Fluorescence-based biochemical high throughput dose response assay for activators of the calcium sensitivity of cardiac Regulated Thin Filaments (RTF). [Related pubchem assays (depositor defined):AID493008, AID493018, AID504382, AID504383]; assay type: protein-complex assay
[8] = biological target: T2, Kappa-type opioid receptor; test: SAR analysis of small molecule agonists of the kappa opioid receptor via a luminescent beta-arrestin assay - Set 3. [Related pubchem assays (depositor defined):AID1777, AID1785, AID1786, AID1966, AID2133, AID2136, AID2284, AID2500]; assay type: functional
Hexokinase-1 = Hexokinase-1 (Homo sapiens, UniProt P19367); test: HK1 enzyme activation by HKDC1 hits – biochemical, selectivity assay for HKDC1 activator project, dose response (AID 504762); assay type: functional
Hexokinase HKDC1 = Hexokinase HKDC1 (Homo sapiens, UniProt Q2TB90); test: activation of HKDC1 glucose phosphorylation – biochemical, W721R variant, dose response (AID 504730); assay type: functional
Sequence of Hexokinase HKDC1 (Q2TB90 whole entry): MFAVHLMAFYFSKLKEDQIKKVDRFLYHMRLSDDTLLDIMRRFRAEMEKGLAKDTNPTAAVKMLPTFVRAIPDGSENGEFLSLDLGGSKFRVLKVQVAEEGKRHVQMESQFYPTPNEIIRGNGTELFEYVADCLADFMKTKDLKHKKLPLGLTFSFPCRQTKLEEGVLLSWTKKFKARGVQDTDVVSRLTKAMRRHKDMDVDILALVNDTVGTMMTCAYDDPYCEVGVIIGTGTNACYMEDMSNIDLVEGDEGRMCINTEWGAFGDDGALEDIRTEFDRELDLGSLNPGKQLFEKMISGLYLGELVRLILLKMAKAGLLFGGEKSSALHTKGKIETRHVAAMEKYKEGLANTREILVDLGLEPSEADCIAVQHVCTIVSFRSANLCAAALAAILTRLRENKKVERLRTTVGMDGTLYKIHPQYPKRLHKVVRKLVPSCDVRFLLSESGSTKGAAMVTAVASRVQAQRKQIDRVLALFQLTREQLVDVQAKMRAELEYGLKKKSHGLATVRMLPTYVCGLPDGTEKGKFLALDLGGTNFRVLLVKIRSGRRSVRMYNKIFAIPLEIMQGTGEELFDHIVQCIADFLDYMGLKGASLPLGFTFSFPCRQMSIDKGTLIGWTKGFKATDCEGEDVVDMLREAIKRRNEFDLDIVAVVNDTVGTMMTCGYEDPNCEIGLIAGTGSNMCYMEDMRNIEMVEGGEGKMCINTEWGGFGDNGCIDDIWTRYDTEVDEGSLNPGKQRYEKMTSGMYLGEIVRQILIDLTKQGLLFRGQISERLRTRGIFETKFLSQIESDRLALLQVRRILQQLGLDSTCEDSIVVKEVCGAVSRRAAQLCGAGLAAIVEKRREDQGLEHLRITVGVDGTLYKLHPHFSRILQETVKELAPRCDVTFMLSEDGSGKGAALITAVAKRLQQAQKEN

T2 sequence (P41145 whole entry): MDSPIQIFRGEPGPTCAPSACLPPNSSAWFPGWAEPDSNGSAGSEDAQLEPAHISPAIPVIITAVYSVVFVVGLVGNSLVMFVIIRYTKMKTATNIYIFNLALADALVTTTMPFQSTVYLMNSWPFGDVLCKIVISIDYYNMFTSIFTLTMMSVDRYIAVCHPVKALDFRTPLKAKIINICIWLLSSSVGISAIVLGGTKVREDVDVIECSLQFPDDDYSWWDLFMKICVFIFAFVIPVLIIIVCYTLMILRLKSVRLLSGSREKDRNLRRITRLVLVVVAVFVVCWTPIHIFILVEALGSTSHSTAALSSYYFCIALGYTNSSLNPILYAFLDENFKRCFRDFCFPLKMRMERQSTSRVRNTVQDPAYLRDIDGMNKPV
T1 sequence (P35372 whole entry): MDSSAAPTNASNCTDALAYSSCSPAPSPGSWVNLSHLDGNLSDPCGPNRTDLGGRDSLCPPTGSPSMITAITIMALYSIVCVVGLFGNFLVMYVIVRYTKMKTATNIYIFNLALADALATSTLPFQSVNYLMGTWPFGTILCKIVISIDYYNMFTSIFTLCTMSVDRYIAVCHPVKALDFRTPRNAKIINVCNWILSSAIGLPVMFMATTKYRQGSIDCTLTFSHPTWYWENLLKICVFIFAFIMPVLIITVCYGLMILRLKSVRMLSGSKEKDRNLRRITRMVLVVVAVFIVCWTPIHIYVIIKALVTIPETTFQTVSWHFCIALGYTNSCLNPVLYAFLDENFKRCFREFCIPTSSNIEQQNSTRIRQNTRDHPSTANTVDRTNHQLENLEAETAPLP
T3 sequence (P41143 whole entry): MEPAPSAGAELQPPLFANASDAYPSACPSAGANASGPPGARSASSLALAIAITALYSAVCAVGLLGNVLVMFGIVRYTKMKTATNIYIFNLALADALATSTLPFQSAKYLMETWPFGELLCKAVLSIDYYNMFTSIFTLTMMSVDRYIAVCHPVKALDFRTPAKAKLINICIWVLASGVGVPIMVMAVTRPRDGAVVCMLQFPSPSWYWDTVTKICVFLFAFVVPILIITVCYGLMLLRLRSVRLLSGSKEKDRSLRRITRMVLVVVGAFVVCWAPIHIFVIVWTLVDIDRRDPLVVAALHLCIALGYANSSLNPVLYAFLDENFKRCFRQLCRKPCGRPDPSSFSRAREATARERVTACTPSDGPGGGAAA
Sequence of Hexokinase-1 (P19367 whole entry): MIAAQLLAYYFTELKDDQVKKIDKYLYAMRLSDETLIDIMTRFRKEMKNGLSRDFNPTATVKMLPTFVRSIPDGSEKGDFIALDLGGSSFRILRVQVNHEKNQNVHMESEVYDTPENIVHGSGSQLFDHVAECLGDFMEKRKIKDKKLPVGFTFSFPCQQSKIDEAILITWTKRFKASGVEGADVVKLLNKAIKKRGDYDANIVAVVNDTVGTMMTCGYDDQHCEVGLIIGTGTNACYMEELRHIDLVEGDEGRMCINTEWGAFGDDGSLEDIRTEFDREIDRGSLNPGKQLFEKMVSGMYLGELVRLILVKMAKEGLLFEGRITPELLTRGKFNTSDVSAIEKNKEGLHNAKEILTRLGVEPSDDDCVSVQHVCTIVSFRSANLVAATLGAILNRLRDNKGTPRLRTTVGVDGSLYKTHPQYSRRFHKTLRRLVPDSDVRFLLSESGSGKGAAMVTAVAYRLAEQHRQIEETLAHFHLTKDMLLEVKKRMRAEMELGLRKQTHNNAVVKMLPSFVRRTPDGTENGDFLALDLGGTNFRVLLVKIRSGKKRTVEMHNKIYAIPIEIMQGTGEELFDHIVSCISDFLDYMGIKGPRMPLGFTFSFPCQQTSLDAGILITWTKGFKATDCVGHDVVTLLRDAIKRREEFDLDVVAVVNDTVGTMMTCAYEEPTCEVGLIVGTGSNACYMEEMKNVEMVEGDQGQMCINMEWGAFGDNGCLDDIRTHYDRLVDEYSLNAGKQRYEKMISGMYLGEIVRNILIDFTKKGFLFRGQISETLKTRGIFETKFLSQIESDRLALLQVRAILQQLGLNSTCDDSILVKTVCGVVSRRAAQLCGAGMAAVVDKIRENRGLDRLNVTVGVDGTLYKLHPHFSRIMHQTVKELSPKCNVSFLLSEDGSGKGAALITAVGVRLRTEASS

Compound: Fc1ccc(CSc2nnc(-c3ccccn3)n2Cc2cccs2)c(F)c1
- EC50 (Mu-type opioid receptor [1]): > 32 µM (inactive)
- EC50 [2]: 5.68 µM (active)
- EC50 [3]: > 32 µM (inactive)
- EC50 [4]: 6.73 µM (active)
- IC50 [5]: > 32 µM (inactive)
- IC50 (Mu-type opioid receptor [6]): > 32 µM (inactive)
- IC50 [7]: > 32 µM (inactive)

Compound: C=CCN1C(=O)c2ccccc2NC1c1cc(Br)cs1 (stereo unspecified)
- EC50 (Troponin, cardiac muscle): > 71.5 µM (inactive)

Compound: FC(F)(F)c1cc(CSc2nnc(-c3ccncc3)n2Cc2ccco2)ccc1Cl
- EC50 [8]: > 20 µM (inactive)

Compound: CC12CCC(C(=O)N/N=C/c3ccc(O)cc3O)(OC1=O)C2(C)C (stereo unspecified)
- EC50 (Hexokinase-1): > 80 µM (inactive)
- EC50 (Hexokinase HKDC1): > 80 µM (inactive)
